Laboratory results from US12589099B2 (priority 2021, dated 2026).

Tests used:
[1] = tested on: moderate traumatic brain injury (TBI) induced by controlled cortical impact (CCI); assay: Modified neurological severity score (mNSS) after TBI; format: in vivo, male Wistar rats
Description: (§1) Young adult (2-3 months) male Wistar rats were subjected to a moderate traumatic brain injury (TBI) induced by controlled cortical impact (CCI). Animal models of TBI including the CCI model and functional tests have been described in detail in peer reviewed publications (Xiong et al., 2013, Nat Rev Neurosci.; Zhang et al., 2016, J Neurosurg.; Zhang et al., 2016, Neurochem Int.; Zhang et al., 2021, J Neurotrauma). Injury consisted of a single impact at 4.0 m/sec, 2.5 mm deformation to the left parietal cortex. In addition, a group of animals was left healthy/not injured to serve as a healthy control.
The animals were divided into 3 groups: • 1) TBI+Vehicle (purified water, n=10) • 2) TBI+ALPHA-1062 (4.5 mg/kg) (n=10) • 3) Healthy/not injured and not treated (Sham surgery) (n=10)
The substance used in this study was ALPHA-1062 at 4.5 mg/kg. As control treatment (vehicle) purified water was administered intranasally (IN). The ALPHA-1062 and the control treatment were initiated 2 hours after injury and continued twice daily (with a 6-hour interval) for 35 consecutive days.
In addition, neurological functional tests were performed by conducting footfault tests and observations to determine the modified neurological severity score (mNSS) at 1, 7, 14, 21, 28, 35 days after TBI (see Table 1). The mNSS is a composite score assessing motor, sensory, balance, and reflex functions. […]

[2] = tested on: NeuN positive cells in DG, CA1, CA3 and cortex; assay: NeuN IHC, neuronal cell loss 35 days post-TBI; format: in vivo, male Wistar rats; details: 4.5 mg/kg IN twice daily; 35 days following TBI
Description: as §1
The substance used in this study was ALPHA-1062 at 4.5 mg/kg. As control treatment (vehicle) purified water was administered intranasally (IN). […]
Histological assessment was performed including quantitative image analysis protocols; followed by statistical analysis of the data. […]
For cell counting and quantitation NeuN+ cells were examined in the ipsilateral cortex, DG, CA1, and CA3 regions of the ipsilateral hippocampus. […] The number of BrdU+ cells (red-fluorophore) and NeuN (green-fluorophore)/BrdU-colabeled cells (yellow after merge) were counted. […] The immune-positive cells were determined and divided by the measured areas and presented as numbers per square mm. […]

Structure (SMILES): COc1ccc2c3c1O[C@H]1C[C@@H](OC(=O)c4ccccc4)C=C[C@@]31CCN(C)C2 [ALPHA-1062, (4aS,6R,8aS)-5,6,9,10,11,12-hexahydro-3-methoxy-11-methyl-4aH-[1]benzofuro[3a,3,2-ef][2]benzazepin-6-ol benzoate]
- mNSS performance ([1]; 4.5 mg/kg IN twice daily, from day 14 (D14) onwards, vs vehicle): statistically significantly better
- Modified Neurological Severity Score (mNSS), performance over VEHICLE ([1]; rats after TBI, compared to vehicle treatment): superior
- neuron numbers (NeuN) in DG, CA1, CA3 and cortex, compared to vehicle [2]: reduced loss of neurons
- neuronal cell numbers (NeuN) compared to sham surgery animals [2]: did not differ significantly
